The values below come from patent US9856242B2, “5-fluoro-N-(pyridin-2-yl)pyridin-2-amine derivatives containing a sulfone group” (Bayer Pharma Aktiengesellschaft, priority 2014, dated 2018).

One assay deals with T1, CDK2/CycE (Homo sapiens, UniProt P24941).
T1 construct: GST; purchased ProQinase GmbH (Freiburg, Germany); host or cells: insect cells (Sf9)
The assay can be described thus: CDK2/CycE kinase assay (Method 2a, TR-FRET, 10 μM ATP). The assay is classed as biochemical. An excerpt:
2a. CDK2/CycE Kinase Assay:
CDK2/CycE-inhibitory activity of compounds of the present invention was quantified employing the CDK2/CycE TR-FRET assay as described in the following paragraphs:
Recombinant fusion proteins of GST and human CDK2 and of GST and human CycE, expressed in insect cells (Sf9) and purified by Glutathion-Sepharose affinity chromatography, were purchased from ProQinase GmbH (Freiburg, Germany). As substrate for the kinase reaction biotinylated peptide biotin-Ttds-YISPLKSPYKISEG (C-terminus in amid form) was used which can be purchased e.g. form the company JERINI Peptide Technologies (Berlin, Germany).
For the assay 50 n1 of a 100 fold concentrated solution of the test compound in DMSO was pipetted into a black low volume 384 well microtiter plate (Greiner Bio-One, Frickenhausen, Germany), 2 μl of a solution of CDK2/CycE in aqueous assay buffer [50 mM Tris/HCl pH 8.0, 10 mM MgCl2, 1.0 mM dithiothreitol, 0.1 mM sodium ortho-vanadate, 0.01% (v/v) Nonidet-P40 (Sigma)] were added and the mixture was incubated for 15 min at 22° C. to allow pre-binding of the test compounds to the enzyme before the start of the kinase reaction. Then the kinase reaction was started by the addition of 3 μl of a solution of adenosine-tri-phosphate (ATP, 16.7 μM=>final conc. in the 5 μl assay volume is 10 μM) and substrate (1.25 μM=>final conc. in the 5 μl assay volume is 0.75 μM) in assay buffer and the resulting mixture was incubated for a reaction time of 25 min at 22° C. The concentration of CDK2/CycE was adjusted depending of the activity of the enzyme lot and was chosen appropriate to have the assay in the linear range, typical concentrations were in the range of 130 ng/mL. The reaction was stopped by the addition of 5 μl of a solution of TR-FRET detection reagents (0.2 μM streptavidine-XL665 [Cisbio Bioassays, Codolet, France] and 1 nM anti-RB(pSer807/pSer811)-antibody from BD Pharmingen [#558389] and 1.2 nM LANCE EU-W1024 labeled anti-mouse IgG antibody [Perkin-Elmer, product no. AD0077]) in an aqueous EDTA-solution (100 mM EDTA, 0.2% (w/v) bovine serum albumin in 100 mM HEPES/NaOH pH 7.0).
The resulting mixture was incubated 1 h at 22° C. to allow the formation of complex between the phosphorylated biotinylated peptide and the detection reagents. Subsequently the amount of phosphorylated substrate was evaluated by measurement of the resonance energy transfer from the Eu-chelate to the streptavidine-XL. Therefore, the fluorescence emissions at 620 nm and 665 nm after excitation at 350 nm was measured in a TR-FRET reader, e.g. a Rubystar (BMG Labtechnologies, Offenburg, Germany) or a Viewlux (Perkin-Elmer). The ratio of the emissions at 665 nm and at […] was taken as the measure for the amount of phosphorylated substrate. The data were normalised (enzyme reaction without inhibitor=0% inhibition, all other assay components but no enzyme=100% inhibition).
In general terms: In TR-FRET formats the signal depends on donor and acceptor labels being close together.

In a further assay the test system is DU145 cells. The assay can be described thus: Proliferation assay (Method 3), DU145. In kind it is cell-based. The conditions noted are these: DU-145, 96 h; hormone-independent human prostate carcinoma, 4 days, crystal violet; read-out: Inhibition of DU145 cell proliferation IC50. As to the method: Cultivated tumour cells (HeLa, human cervical tumour cells, ATCC CCL-2; NCI-H460, human non-small cell lung carcinoma cells, ATCC HTB-177; A2780, human ovarian carcinoma cells, ECACC #93112519; DU 145, hormone-independent human prostate carcinoma cells, ATCC HTB-81; HeLa-MaTu-ADR, multidrug-resistant human cervical carcinoma cells, EPO-GmbH Berlin; Caco-2, human colorectal carcinoma cells, ATCC HTB-37; B16F10, mouse melanoma cells, ATCC CRL-6475) were plated at a density of 5,000 cells/well (DU145, HeLa-MaTu-ADR), 3,000 cells/well (NCI-H460, HeLa), 2,500 cells/well (A2780), 1,500 cells/well (Caco-2), or 1,000 cells/well (B16F10) in a 96-well multititer plate in 200 μL of their respective growth medium supplemented 10% fetal calf serum. After 24 hours, the cells of one plate (zero-point plate) were stained with crystal violet (see below), while the medium of the other plates was replaced by fresh culture medium (200 μl), to which the test substances were added in various concentrations (0 μM, as well as in the range of 0.001-10 μM; the final concentration of the solvent dimethyl sulfoxide was 0.5%). The cells were incubated for 4 days in the presence of test substances. Cell proliferation was determined by staining the cells with crystal violet: the cells were fixed by adding 20 μl/measuring point of an 11% glutaric aldehyde solution for 15 minutes at room temperature. After three washing cycles of the fixed cells with water, the plates were dried at room temperature. The cells were stained by adding 100 μl/measuring point of a 0.1% crystal violet solution (pH 3.0). After three washing cycles of the stained cells with water, the plates were dried at room temperature. The dye was dissolved by adding 100 μl/measuring point of a 10% acetic acid solution. The extinction was determined by photometry at a wavelength of 595 nm. The change of cell number, in percent, was calculated by normalization of the measured values to the extinction values of the zero-point plate (=0%) and the extinction of the untreated (0 μm) cells (=100%). The IC50 values (inhibitory concentration at 50% of maximal effect) were determined by means of a 4 parameter fit.

On to `CS(=O)(=O)Cc1ccnc(Nc2cc(-c3ccc(F)c4ccoc34)c(F)cn2)c1` [Example 1, 5-Fluoro-4-(4-fluoro-1-benzofuran-7-yl)-N-{4-[(methylsulfonyl)methyl]pyridin-2-yl}pyridin-2-amine], for which the results for the IC50 against CDK2/CycE and with DU145 cells were 87 nM and 34 nM, respectively.

As for `CS(=O)(=O)Cc1ccnc(Nc2cc(-c3cccc4ccoc34)c(F)cn2)c1` [Example 5, 4-(1-Benzofuran-7-yl)-5-fluoro-N-{4-[(methylsulfonyl)methyl]pyridin-2-yl}pyridin-2-amine], the IC50 was 69 nM against CDK2/CycE and 58 nM in the assay with DU145 cells.

Turning to `Cc1cc(CS(C)(=O)=O)cc(Nc2cc(-c3ccc(F)c4ccoc34)c(F)cn2)n1` [Example 3, 5-Fluoro-4-(4-fluoro-1-benzofuran-7-yl)-N-{6-methyl-4-[(methylsulfonyl)methyl]pyridin-2-yl}pyridin-2-amine], the IC50 came out at 46 nM against CDK2/CycE and 24 nM in the assay with DU145 cells.

Take `CS(=O)(=O)Cc1cc(Nc2cc(-c3ccc(F)c4ccoc34)c(F)cn2)nc(C(F)(F)F)c1` [Example 4, 5-Fluoro-4-(4-fluoro-1-benzofuran-7-yl)-N-{4-[(methylsulfonyl)methyl]-6-(trifluoromethyl)pyridin-2-yl}pyridin-2-amine]: the IC50 at CDK2/CycE amounted to 33 nM; with DU145 cells, 30 nM.

`CS(=O)(=O)Cc1cc(F)nc(Nc2cc(-c3ccc(F)c4ccoc34)c(F)cn2)c1` [Example 2, 5-Fluoro-4-(4-fluoro-1-benzofuran-7-yl)-N-{6-fluoro-4-[(methylsulfonyl)methyl]pyridin-2-yl}pyridin-2-amine]: the IC50 at CDK2/CycE worked out at 71 nM; in the assay on DU145 cells, 36 nM.
